Bounds are passed on as bounds.

One test deals with human RS virus A2 strain. In words: In vitro test for anti-RS virus proliferation inhibitory activity (quantitative RT-PCR of RS virus RNA copy number in infected Vero cells). Format: cell-based. The note with it: 72 h; Vero cells infected with human RS virus A2 strain, 3 days of incubation, RS virus N gene RNA copy number by quantitative RT-PCR; read-out: Anti-RS virus Activity. In outline:
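Vero cells infected with RSV A2 (1.7×10^4 TCID50/mL in inoculum mix) with compound in 10% FCS EMEM, 3 days at 37 °C, 5% CO2. Lysate viral N-gene RNA quantified by one-step SYBR qRT-PCR; copy number by comparative Ct relative to untreated infected cells.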
On to `O=C(c1ccc2cc(C(=O)N3C[C@H](O)C[C@H]3c3nc(CCCc4ccccc4)no3)ccc2c1)N1C[C@H](O)C[C@H]1c1nc(CCCc2ccccc2)no1` [Compound 4-6, Naphthalene-2,6-diylbis(((2S,4R)-4-hydroxy-2-(3-(3-phenylpropyl)-1,2,4-oxadiazol-5-yl)pyrrolidin-1-yl)methanone)], for which the IC50 is above 50 µM.

The same test, now with this note: 72 h; Vero cells infected with human RS virus A2 strain, 3 days of incubation, RS virus RNA copy number by quantitative RT-PCR; read-out: Anti-RS virus Activity.
As for `CC(C)(C)OC(=O)N1CCC(S(=O)(=O)N2CC3(CC3)C[C@H]2c2nc(CCCc3ccccc3)no2)CC1` [Compound 5AO, tert-buthyl (S)-4-((6-(3-(3-phenylpropyl)-1,2,4-oxadiazole-5-yl)-5-azaspiro[2.4]heptan-5-yl)sulfonyl)piperidin-1-carboxylate], the IC50 was below 10 µM. For `CC(C)(C)OC(=O)N1CC2(CC2)C[C@H]1c1nc(CCCc2ccccc2)no1` [Compound 5-1, 3-(3-phenylpropyl)-5-{(6S)-5-tert-butoxycarbonyl-5-azaspiro[2.4]hept-6-yl}-1,2,4-oxadiazole], the IC50 was below 10 µM. Still for that read-out and setting: for `O=S(=O)(N1CCOCC1)N1CC(CC2CCC2)CC1c1nc(CCCc2ccccc2)no1` (centres unmarked) [Compound 6AE, 4-((4-(cyclobuthylmethyl)-2-(3-(3-phenylpropyl)-1,2,4-oxadiazole-5-yl)pyrrolidin-1-yyl)sulfonyl)morpholine] the value was 10 to 50 µM. Same read-out and setting: for `O=C(C1CCCCC1)N1CCCC[C@H]1c1nc(CCCc2ccccc2)no1` [Compound 2Y, (S)-cyclohexyl(2-(3-(3-phenylpropyl)-1,2,4-oxadiazol-5-yl)piperidin-1-yl)methanone] the value was below 10 µM. Same read-out and setting: for `O=C(NCc1noc([C@@H]2C[C@@H](c3ccccc3)CN2S(=O)(=O)c2ccc(F)cc2)n1)c1ccc2ccccc2n1` [Compound 45AJ, N-((5-((2S,4S)-1-((4-fluorophenyl)sulfonyl)-4-phenylpyrrolidin-2-yl)-1,2,4-oxadiazol-3-yl)methyl)quinoline-2-carboxamide] the value was 10 to 50 µM. With `CC(C)CS(=O)(=O)N1C[C@H](F)C[C@H]1c1nc(CCCc2ccccc2)no1` [Compound 8A, 3-(3-phenylpropyl)-5-[(2S,4R)-1-isobutylsulfonyl-4-fluoropyrrolidin-2-yl]-1,2,4-oxadiazole], the IC50 fell in the range of 10 to 50 µM. As for `CC(C)COC(=O)N1CCC[C@H]1c1nc(CCCc2ccccc2)no1` [Compound 1I, Isobutyl (S)-2-(3-(3-phenylpropyl)-1,2,4-oxadiazol-5-yl) pyrrolidine-1-carboxylate], the IC50 is below 10 µM.
